Measured values taken from patent US7880007B2, “Bicyclic substituted phenyl piperidine modulators of muscarinic receptors” (Vertex Pharmaceuticals Incorporated, priority 2004, dated 2011).

What was measured:
Type in all cases: cell-based
M1 muscarinic receptor = biological target: T1, M1 muscarinic receptor (Homo sapiens, UniProt P11229); test: Functional mobilization of intracellular calcium (FLIPR), M1-CHO cells; details: for M1 Activity: M1-CHO cells, calcium mobilization (FLIPR)
T1 construct: expressed in transfected cells; host or cells: CHO (M1-CHO)
T1 sequence (P11229 1-460): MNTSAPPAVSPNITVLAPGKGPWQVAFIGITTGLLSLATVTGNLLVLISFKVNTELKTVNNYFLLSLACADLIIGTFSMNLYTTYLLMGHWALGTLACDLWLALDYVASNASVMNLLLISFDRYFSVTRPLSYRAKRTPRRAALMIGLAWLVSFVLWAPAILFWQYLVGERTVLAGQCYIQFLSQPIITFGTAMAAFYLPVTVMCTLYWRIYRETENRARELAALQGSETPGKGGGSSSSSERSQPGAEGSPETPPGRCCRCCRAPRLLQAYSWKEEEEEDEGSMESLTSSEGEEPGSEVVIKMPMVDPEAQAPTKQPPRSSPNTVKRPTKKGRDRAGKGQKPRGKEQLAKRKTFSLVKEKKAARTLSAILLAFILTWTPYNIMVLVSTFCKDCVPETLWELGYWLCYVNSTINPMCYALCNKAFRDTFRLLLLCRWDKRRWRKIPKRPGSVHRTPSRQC
Method in brief: (§1)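 CHO cells expressing human M1–M4 receptors loaded with Fluo-3 AM or Calcium 3 dye (1 mM probenecid, pH 7.4); 0.5% DMSO final. Agonist mode: compound added directly; antagonist mode: 15 min pre-incubation or co-application, then carbachol at EC80. Fluorescence read 60 s on FLIPR; efficacy relative to carbachol maximum.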

M2 muscarinic receptor = biological target: T2, M2 muscarinic receptor (Homo sapiens, UniProt P08172); test: Functional mobilization of intracellular calcium (FLIPR), M2-CHO cells; details: for M2 Activity: M2-CHO cells, calcium mobilization (FLIPR)
T2 construct: expressed in transfected cells; host or cells: CHO (M2-CHO)
T2 sequence (P08172 1-466): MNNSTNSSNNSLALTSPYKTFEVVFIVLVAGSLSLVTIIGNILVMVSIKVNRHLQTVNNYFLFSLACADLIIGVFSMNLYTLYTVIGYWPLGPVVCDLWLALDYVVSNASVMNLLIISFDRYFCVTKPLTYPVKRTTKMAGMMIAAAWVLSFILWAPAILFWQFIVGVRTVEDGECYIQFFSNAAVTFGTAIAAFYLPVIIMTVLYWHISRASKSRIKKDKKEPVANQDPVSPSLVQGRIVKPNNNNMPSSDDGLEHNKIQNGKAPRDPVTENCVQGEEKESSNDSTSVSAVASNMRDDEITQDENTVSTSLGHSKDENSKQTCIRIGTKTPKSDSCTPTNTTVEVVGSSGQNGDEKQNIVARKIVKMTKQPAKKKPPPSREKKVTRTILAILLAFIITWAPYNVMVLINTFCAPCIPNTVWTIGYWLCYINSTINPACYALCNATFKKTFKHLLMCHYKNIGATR
Method in brief: as §1

M3 muscarinic receptor = biological target: T3, M3 muscarinic receptor (Homo sapiens, UniProt P20309); test: Functional mobilization of intracellular calcium (FLIPR), M3-CHO cells; details: for M3 Activity: M3-CHO cells, calcium mobilization (FLIPR)
T3 construct: expressed in transfected cells; host or cells: CHO (M3-CHO)
T3 sequence (P20309 whole entry): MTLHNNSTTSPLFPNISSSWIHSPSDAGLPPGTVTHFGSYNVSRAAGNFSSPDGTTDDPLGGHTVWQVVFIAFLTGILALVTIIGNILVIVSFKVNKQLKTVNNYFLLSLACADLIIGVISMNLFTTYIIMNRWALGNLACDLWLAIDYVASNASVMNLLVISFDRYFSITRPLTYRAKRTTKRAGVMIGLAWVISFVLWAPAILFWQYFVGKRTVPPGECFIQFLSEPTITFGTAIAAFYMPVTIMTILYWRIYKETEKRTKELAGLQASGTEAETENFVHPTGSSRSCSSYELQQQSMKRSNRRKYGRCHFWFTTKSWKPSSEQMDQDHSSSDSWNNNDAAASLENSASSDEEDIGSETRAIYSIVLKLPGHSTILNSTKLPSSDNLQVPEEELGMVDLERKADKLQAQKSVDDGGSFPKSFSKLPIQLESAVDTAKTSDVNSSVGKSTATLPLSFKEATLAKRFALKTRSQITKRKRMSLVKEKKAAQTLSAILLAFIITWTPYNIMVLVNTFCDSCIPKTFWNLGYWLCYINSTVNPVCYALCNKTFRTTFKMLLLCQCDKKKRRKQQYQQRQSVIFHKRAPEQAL
Method in brief: as §1

M4 muscarinic receptor = biological target: T4, M4 muscarinic receptor (Homo sapiens, UniProt P08173); test: Functional mobilization of intracellular calcium (FLIPR), M4-CHO cells; details: for M4 Activity: M4-CHO cells, calcium mobilization (FLIPR)
T4 construct: expressed in transfected cells; host or cells: CHO (M4-CHO)
T4 sequence (P08173 1-479): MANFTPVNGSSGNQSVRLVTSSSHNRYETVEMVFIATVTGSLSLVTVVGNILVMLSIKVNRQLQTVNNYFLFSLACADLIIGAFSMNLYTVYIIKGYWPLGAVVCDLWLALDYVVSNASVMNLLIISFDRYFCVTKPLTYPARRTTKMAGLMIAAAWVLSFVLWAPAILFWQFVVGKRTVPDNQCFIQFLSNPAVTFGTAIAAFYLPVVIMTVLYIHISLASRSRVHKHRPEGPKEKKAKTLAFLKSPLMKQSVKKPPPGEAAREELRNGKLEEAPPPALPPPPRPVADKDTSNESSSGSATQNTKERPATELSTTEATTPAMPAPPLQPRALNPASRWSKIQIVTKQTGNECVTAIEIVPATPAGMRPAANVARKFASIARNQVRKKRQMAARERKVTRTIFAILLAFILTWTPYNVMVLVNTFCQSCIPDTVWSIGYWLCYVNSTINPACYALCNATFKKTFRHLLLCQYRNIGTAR
Method in brief: as §1

[1] = 100% efficacy = maximum response obtained with the Carbachol control

Compound	Emax (M1 muscarinic receptor; [1]) [%]	M1 Activity (M1 muscarinic receptor)	Emax (M2 muscarinic receptor; [1]) [%]	M2 Activity (M2 muscarinic receptor)	Emax (M3 muscarinic receptor; [1]) [%]	M3 Activity (M3 muscarinic receptor)	Emax (M4 muscarinic receptor; [1]) [%]	M4 Activity (M4 muscarinic receptor)	M1 Efficacy (M1 muscarinic receptor; [1])	M2 Efficacy (M2 muscarinic receptor; [1])	M3 Efficacy (M3 muscarinic receptor; [1])	M4 Efficacy (M4 muscarinic receptor; [1])
CCCC1CCC(N2CCC(F)(c3cc(F)ccc3OC)CC2)CC1 (centres unmarked) [Compound 327]	25 to 100	++ (activity was measured to be from 1.0 μM to 5.0 μM)	25 to 100	+ (activity was measured to be greater than 5.0 μM)	< 25	+ (activity was measured to be greater than 5.0 μM)	25 to 100	++ (activity was measured to be from 1.0 μM to 5.0 μM)	–	–	–	–
CNC(=O)c1ccc(-c2ccc(OC)c(C3CCN(C4C[C@H]5CC[C@H]4C5)CC3)c2)cc1Cl (some centres unmarked) [Compound 328]	< 25	+ (activity was measured to be greater than 5.0 μM)	< 25	+ (activity was measured to be greater than 5.0 μM)	< 25	+ (activity was measured to be greater than 5.0 μM)	25 to 100	++ (activity was measured to be from 1.0 μM to 5.0 μM)	–	–	–	–
Cc1ccc(C)c(C2CCN(CC3CC4C=CC3C4)CC2)c1 (centres unmarked) [Compound 329]	25 to 100	+ (activity was measured to be greater than 5.0 μM)	< 25	+ (activity was measured to be greater than 5.0 μM)	–	+ (activity was measured to be greater than 5.0 μM)	25 to 100	++ (activity was measured to be from 1.0 μM to 5.0 μM)	–	–	–	–
CCOC(=O)N1C2CCC1CC(N1CCC(c3cc(F)ccc3OC)CC1)C2 (centres unmarked) [Compound 330]	25 to 100	+++ (activity was measured to be less than 1.0 μM)	25 to 100	+++ (activity was measured to be less than 1.0 μM)	< 25	+ (activity was measured to be greater than 5.0 μM)	25 to 100	+++ (activity was measured to be less than 1.0 μM)	–	–	–	–
COc1ccc(Cl)cc1C1CCN(C2CCC3(CC2)OCCO3)CC1 [Compound 331, 4-(5-chloro-2-methoxyphenyl)-1-(1,4-dioxaspiro[4.5]decan-8-yl)piperidine]	25 to 100	+ (activity was measured to be greater than 5.0 μM)	< 25	+ (activity was measured to be greater than 5.0 μM)	< 25	+ (activity was measured to be greater than 5.0 μM)	25 to 100	+++ (activity was measured to be less than 1.0 μM)	–	–	–	–
COc1ccc(-c2ccc(S(=O)(=O)N3CCCC3)cc2)cc1C1CCN(C2CCCCC2)CC1 [Compound 332]	25 to 100	+ (activity was measured to be greater than 5.0 μM)	< 25	+ (activity was measured to be greater than 5.0 μM)	< 25	+ (activity was measured to be greater than 5.0 μM)	25 to 100	+ (activity was measured to be greater than 5.0 μM)	–	–	–	–
Cc1c(C2CCN(C3CCOCC3)CC2)cccc1C(F)(F)F [Compound 333]	< 25	+ (activity was measured to be greater than 5.0 μM)	< 25	+ (activity was measured to be greater than 5.0 μM)	< 25	+ (activity was measured to be greater than 5.0 μM)	25 to 100	++ (activity was measured to be from 1.0 μM to 5.0 μM)	–	–	–	–
CCOC(=O)N1C2CCC1CC(N1CCC(F)(c3cc(F)ccc3OC)CC1)C2 (centres unmarked) [Compound 334]	25 to 100	+++ (activity was measured to be less than 1.0 μM)	< 25	+ (activity was measured to be greater than 5.0 μM)	< 25	+ (activity was measured to be greater than 5.0 μM)	25 to 100	+++ (activity was measured to be less than 1.0 μM)	–	–	–	–
COc1ccc(Cl)cc1C1CCN(C2CCC(=NOc3ccccc3)CC2)CC1 (centres unmarked) [Compound 336]	–	++ (activity was measured to be from 1.0 μM to 5.0 μM)	–	+ (activity was measured to be greater than 5.0 μM)	–	+ (activity was measured to be greater than 5.0 μM)	–	+++ (activity was measured to be less than 1.0 μM)	++ (efficacy was calculated to be from 100% to 25%)	+ (efficacy was calculated to be less than 25%)	+ (efficacy was calculated to be less than 25%)	++ (efficacy was calculated to be from 100% to 25%)
CCOC(=O)N1CCC(CN2CCC(c3cccc(C(F)(F)F)c3C)CC2)CC1 [Compound 337]	25 to 100	++ (activity was measured to be from 1.0 μM to 5.0 μM)	< 25	+ (activity was measured to be greater than 5.0 μM)	< 25	+ (activity was measured to be greater than 5.0 μM)	25 to 100	+++ (activity was measured to be less than 1.0 μM)	–	–	–	–
COc1ccccc1C1CCN(C2CC(c3ccccc3)C(c3ccccc3)C2)CC1 (centres unmarked) [Compound 339]	25 to 100	+ (activity was measured to be greater than 5.0 μM)	< 25	+ (activity was measured to be greater than 5.0 μM)	< 25	+ (activity was measured to be greater than 5.0 μM)	25 to 100	+ (activity was measured to be greater than 5.0 μM)	–	–	–	–
COc1ccc(F)cc1C1(O)CCN(C[C@H]2C[C@H]3C=C[C@H]2C3)CC1 [Compound 340]	25 to 100	+ (activity was measured to be greater than 5.0 μM)	25 to 100	+ (activity was measured to be greater than 5.0 μM)	< 25	+ (activity was measured to be greater than 5.0 μM)	25 to 100	+++ (activity was measured to be less than 1.0 μM)	–	–	–	–
